Data published in patent publication US20240390487A1, “TLR AGONISTS FOR REDUCING ACTIVATION-INDUCED PD-1 EXPRESSION ON T CELLS AND METHODS OF USE” (WISCONSIN ALUMNI RESEARCH FOUNDATION, priority 2016, published 2024).
“Also recorded” adds a separate entry of the source.

Columns and labels:
CD8+ OT-1 T cells = conditions: for Eomesodermin (EOMES gene) expression / expression of genes associated with T-cell regulation (including PD-1 and IL-10): 24 to 72 hours, versus peptide alone
Description: CD8+ OT-1 T cells were then purified and evaluated for gene expression changes by RNA sequencing (RNA-seq).
RNA preparation and sequencing: Cells were stimulated in vitro as above, and at the times indicated T cells were isolated via immunomagnetic negative selection (StemCell, Vancouver, Canada 19853), RNA was collected as per the manufacturers instruction (Direct-zol RNA MiniPrep Plus w/TRI Reagent, Zymo Research), treated with DNAse (TURBO DNA-free Kit, Invitrogen), and stored at −80° C. until analysis at the UW-Madison Biotechnology Center. Total RNA was verified for purity and integrity via a NanoDrop2000 Spectrophotometer and Agilent 2100 BioAnalyzer, respectively. Samples that met the Illumina sample input guidelines were prepared using the Illumina® TruSeq® Stranded mRNA Sample Preparation kits (Illumina Inc., San Diego, California, USA). For each library preparation, mRNA was purified from 1000 ng total RNA using poly-T oligo-attached magnetic beads. Subsequently, each poly-A enriched sample was fragmented using divalent cations under elevated temperature. The fragmented RNA was synthesized into double-stranded cDNA using SuperScript II Reverse Transcriptase (Invitrogen, Carlsbad, California, USA) and random primers for first strand cDNA synthesis followed by second strand synthesis using DNA Polymerase I and RNAse H for removal of mRNA. Double-stranded cDNA was purified by paramagnetic beads (Agencourt AMPure XP beads, Beckman Coulter). The cDNA products were incubated with Klenow DNA Polymerase and DNA fragments, ligated to Illumina adapters, and purified by paramagnetic beads. Adapter ligated DNA was amplified in a Linker Mediated PCR reaction (LM-PCR) for 11 cycles using Phusion™ DNA Polymerase and Illumina's PE genomic DNA primer set and then purified by paramagnetic beads. Quality and quantity of the finished libraries were assessed using an Agilent DNA1000 chip (Agilent Technologies. Inc., Santa Clara, CA, USA) and Qubit® dsDNA HS Assay Kit (Invitrogen, Carlsbad, California, USA), respectively. Libraries were standardized to 2 μM. Cluster generation was performed using standard Cluster Kit (v3) and the Illumina Cluster Station. Single 100 bp sequencing was performed, using standard SBS chemistry (v4) on an Illumina HiSeq2500 sequencer. Images were analyzed using the standard Illumina Pipeline, version 1.8.2.
RNA sequencing data analysis: Illumina sequencing reads were adapter and quality trimmed using the Skewer trimming program. Quality reads were subsequently aligned to the annotated reference genome using the STAR aligner (43). Quantification of expression for each gene was calculated by RSEM (44), the expected read counts from RSEM were filtered for low/empty values and used for differential gene expression analysis using DESeq2 (45). All remaining genes from the pairwise comparisons were analyzed using Gene Set Enrichment Analysis (GSEA) (46, 47) to identify pathways (based on GO terms (c5.all.v6) from the Molecular Signatures Database (MSigDB (48)) as well as custom gene sets involved in TLR1/2 versus TLR7 ligand activation. GSEA was performed by calculating a ranked vector as log2 fold-change. Analysis was performed using R 3.3.1 (49) and Bioconductor 2.32.0 (50). Venn diagrams were generated using the VennDiagram package.

[1] = system: ovalbumin-expressing E.G7 cells; assay: Ovalbumin tumor treatment study: peptide immunization with or without TLR agonist; format: in vivo, mice; conditions: for anti-tumor effect of peptide immunization with TLR agonist: OVA or FT peptide with TLR agonist versus peptide alone, E.G7 tumors, OT-1 transfer; for LAG-3 expression on CD8+ TIL / PD-1 expression on CD8+ TIL / PD-L1 expression on tumor cells / number of CD8+ tumor-infiltrating lymphocytes: tumors at necropsy; for anti-tumor efficacy of TLR ligand adjuvant alone: with non-specific peptide, no antigen-specific T-cell activation
Description: OT-1 T cells were then adoptively transferred and the following day were immunized with SIINFEKL (SEQ ID NO:1, OVA) or FT peptide (SEQ ID NO:2) alone or with TLR1/2 or TLR7 agonist. Other groups were immunized with 100 μg anti-PD-1 antibody delivered the following day. […] This anti-tumor effect was not observed with TLR agonist treatment alone (FIG. 22). […] This was associated with a reduced PD-1 (but not LAG-3) expression on CD8+ TIL (FIG. 17C).
Ovalbumin tumor treatment studies: 10^6 ovalbumin-expressing E.G7 PD-L 1^high cells were injected subcutaneously into 6- to 10-week old female B6 mice. Ten to fifteen days post injection, when tumors were palpable and similarly sized (˜0.2 cm^3), 2×10^6 naïve OT-1 CD8+ T cells were adoptively transferred to each mouse as described above. The following day mice were immunized subcutaneously with 100 μg of an individual peptide (SIINFEKL (SEQ ID NO:1) or variant, LifeTein) in PBS, with or without TLR agonists as described above. In the group receiving PD-1 blocking antibody, 100 μg of antibody (clone G4 (52)) was injected intraperitoneally on the day following vaccination. Tumor volume was measured over time using calipers and calculated in cubic centimeters according to the following formula: (π/6)*(long axis)*(short axis)^2. Tumors obtained at necropsy were digested in media containing 1 mg/mL collagenase and 20 μg/mL DNAse I (Sigma, St. Louis, MO) for 1-2 hours at 37° C. and passed through a 100-μm screen to obtain a single-cell suspension. Tumor cells and tumor-infiltrating lymphocytes (TILs) were stained and analyzed by flow cytometry using the following panel: CD3-FITC (BD 555274), CD4-BUV395 (BD 563790), CD8-BUV805 (BD 564920), LAG-3-BV711 (BD 563179), PD1-PECF594 (BD 562523), PDL1-PECy7 (BD 558017), 41BB-PerCPeF710) (eBioscience 46-1371-82), CD45-BV510 (BD 563891) and Live/Dead Ghost dye 780 (Tonbo, San Diego, CA 13-0865-T100) or corresponding fluorescently labeled IgG controls.

[2] = system: SSX2-expressing sarcoma cells; assay: SSX2 tumor treatment study: DNA vaccine with or without TLR agonist; format: in vivo, mice; conditions: for anti-tumor efficacy / tumor growth suppression in combination with DNA vaccine: TLR agonist with DNA vaccine versus vaccine alone; for effect on tumor growth of TLR agonist alone (with vector DNA): with control vector pTVG4
Description: Mice expressing human HLA-A2 were injected subcutaneously with SSX2-expressing sarcoma cells. Starting one day after inoculation, and every 7 days thereafter, mice were vaccinated with a DNA vaccine encoding SSX2, an optimized version of SSX2 with increased affinity for HLA-A2 (pTVG-SSX2 opt) or negative control vector pTVG4. All were done with or without TLR1/2 agonist or TLR7 agonist mixed with the DNA. A solution of DNA and a solution of TLR agonist in PBS were made and mixed together prior to administration. Note that TLR stimulation via a TLR agonist improves the efficacy of pTVG-SSX2 opt to a greater extent than pTVG-SSX2.
Using this model, HLA-A2-expressing transgenic mice were implanted with synovial sarcoma, X breakpoint 2 (SSX-2)-expressing tumor cells. […], mice were then immunized weekly with control vector (pTVG4), DNA encoding native SSX2 (pTVG-SSX2), or DNA encoding high affinity HLA-A2 epitopes (pTVG-SSX2 opt) in the presence or absence of Pam3CSK4 (TLR1/2) or Gardiquimod (TLR7) agonist.
SSX2 tumor treatment studies: 6- to 8-week old HHDII-DR1 mice were inoculated with 10^5 A2/Sarc-SSX2 cells administered subcutaneously, and then immunized intradermally with DNA vaccines weekly beginning one day after tumor implantation, as previously described (42). TLR agonists or vehicle were co-administered with the vaccine intradermally, and tumor volumes were measured over time using calipers, as described above.

Compound | expression of genes associated with Th1-biased cytotoxic effector function (IFNγ, TNFα, granzymes A-C, perforin, T-Bet) (CD8+ OT-1 T cells) | Eomesodermin (EOMES gene) expression (CD8+ OT-1 T cells) | expression of genes associated with T-cell regulation (including PD-1 and IL-10) (CD8+ OT-1 T cells) | anti-tumor effect of peptide immunization with TLR agonist [1] | LAG-3 expression on CD8+ TIL [1] | PD-1 expression on CD8+ TIL [1] | PD-L1 expression on tumor cells [1] | number of CD8+ tumor-infiltrating lymphocytes [1] | anti-tumor efficacy of TLR ligand adjuvant alone [1] | anti-tumor efficacy / tumor growth suppression in combination with DNA vaccine [2] | effect on tumor growth of TLR agonist alone (with vector DNA) [2]
CCNCc1nc2c(N)nc3ccccc3c2n1CC(C)(C)O [Gardiquimod] | induced | reduced | reduced | greater anti-tumor effect | not | reduced | reduced | greater number | do not have significant anti-tumor efficacy | significantly increased; also recorded: improved the tumor growth suppression | modest effects
Pam3CSK4 | induced | reduced | reduced | greater anti-tumor effect | not | reduced | reduced | greater number | do not have significant anti-tumor efficacy | significantly increased; also recorded: improved the tumor growth suppression | modest effects
